The source of these data is PubChem BioAssay (NCI).

Values joined by “and” are separate entries in the source; they are usually repeats but may differ in a detail not shown here. Equal values may be shown once.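 Exposure lasted 48 hours, with cells grown in 96-well plates and compounds tested at five concentrations. GI50 is the concentration that inhibits growth by half. TGI is the concentration that stops growth completely.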

What all share (experiment): growth of human tumour cells (NCI), 48 h
Assay [1] relates to M19-MEL melanoma.
For assay [2], the system named is KM20L2 colon.
Assay [3] deals with DLD-1 colon.
In assay [4] the test system is DMS 273 small cell lung.
In assay [5] the test system is XF 498 CNS.
In assay [6] the test system is T-47D breast.
Assay [7] concerns MDA-N.
Assay [8] deals with RXF-631 renal.

On to `CCOc1ccc(NC(=O)CC2SC(=Nc3ccc(C)cc3C)NC2=O)cc1` (configuration not stated), for which the TGI in assay [1], in assay [2], in assay [3], in assay [4] and in assay [5] was > 100 µM in each case.

Consider `Nc1c(C(=O)Nc2ccccn2)sc2nc3c(cc12)C(=O)CCC3`, for which, in assay [6], the GI50 is 4.89 µM and the TGI was > 100 µM.

`CN(Cc1cnc2nc(N)nc(N)c2n1)c1ccc(C(=O)N[C@@H](CCS(=O)(=O)O)C(=O)O)cc1`: the TGI in assay [6] and in assay [7] was > 100 µM in each case.

For the molecule `CN(C)CCNC(=O)Cc1ccccc1Nc1c(Cl)cccc1Cl`, the TGI in assay [1] came out at 28.5 µM; in assay [2], 13.9 µM; in assay [3], 27.3 µM; in assay [4], 30.5 µM.

With `c1ccc2c(c1)CCc1c(-c3ccncc3)n[nH]c1-2`, the TGI in assay [1] is 72.8 µM; in assay [2], 45.9 µM; in assay [3] it was > 100 µM; in assay [4] it was 52.1 µM; in assay [5], 22.5 µM.

As for `COc1cc(C[P+](c2ccccc2)(c2ccccc2)c2ccccc2)cc(OC)c1OC`, the TGI in assay [1], in assay [2], in assay [3], in assay [4] and in assay [5] was > 100 µM each time.

On to `O=C(Nc1ncc(Cc2cccc(C(F)(F)F)c2)s1)c1ccc2c(c1)OCCO2`, for which, in assay [6], the GI50 is 0.606 µM and the TGI is > 100 µM.

Turning to `CO[C@@H]1CC[C@]2(C)OC[C@H](C)[C@@H]3C[C@@H](C)[C@@H](OC(C)=O)[C@@H]4[C@H]3[C@@H]2O[C@H]4C[C@@]1(C)O`, in assay [6], the GI50 is > 100 µM and the TGI is > 100 µM.

As for `Cc1nc2sccn2c1-c1nc2sccn2c1/C=C1/C(=O)Nc2ccccc21`, in assay [6], the GI50 was 3.47 µM and the TGI was determined as 63.6 µM.

Take `Cc1nc2c(Br)cc(Br)cc2c(=O)n1-c1nnc(-c2cccc(Cl)c2Cl)c(N)n1`: in assay [6], the GI50 is 55.2 µM and the TGI was > 100 µM.

Turning to `COc1nc(=O)n(C2C=CC(=O)O2)cc1F` (configuration not stated), in assay [6], the GI50 was 2.24 µM and the TGI is 7.24 µM.

As for `CCOC(=O)Nc1c(C)nc2ccccn12`, in assay [6], the GI50 is > 100 µM and the TGI was > 100 µM.

On to `Cc1cccc(NC2=C(Cl)C(=O)c3nc(C)ccc3C2=O)c1`, for which, in assay [6], the GI50 was 1.65 µM and the TGI was 4.29 µM.

In the case of `CCCN(CCC)c1c([N+](=O)[O-])cc(C(=O)N(CC)CC)cc1[N+](=O)[O-]`, the TGI in assay [1] was 47.8 µM; in assay [2], 53.1 µM; in assay [3], > 100 µM; in assay [4] it was 43.7 µM.

For `COc1cc(/C=C2\CCCCC3=C2N=C2SC(C)=CN2C3c2cc(OC)c(OC)c(OC)c2)cc(OC)c1OC` (configuration not stated), in assay [6], the GI50 is 0.566 µM and the TGI is > 100 µM.

Regarding `CCn1cc(-c2ccnc3[nH]c(-c4cccc(CN(C)C)c4)cc23)c(-c2ccc(NC(=O)N(C)C)cc2)n1`, in assay [6], the GI50 is 13.3 µM and > 10 µM; the TGI is 77.3 µM and > 10 µM.

Take `NCCCn1c2c(c3ccc([N+](=O)[O-])cc3c1=O)C(=O)c1cc(I)ccc1-2`: in assay [6], the GI50 was 0.0446 µM and the TGI was 2.08 µM.

On to `Cc1cc2c(cc1C)[n+](=O)cc(C(=O)C/C(=N/NC(=S)NN)C(=O)Nc1cccc(C(F)(F)F)c1)n2[O-]`, for which the TGI in assay [1], in assay [3], in assay [4] and in assay [8] was > 100 µM each time.

Regarding `COC(=O)c1c2c(c(C)[n+]([O-])c1C)C(=O)C(NCc1ccc(Br)cc1)=CC2=O`, in assay [6], the GI50 was 1.52 µM and the TGI came out at 4.06 µM.

In turn, `Cc1cc(C(=O)CSC(=S)SC(C)(C)C)ccc1Cl` showed a TGI in assay [7] of 36.8 µM.

As for `FC(F)(F)c1ccc2nc(NCc3ccccc3)c(-c3ccccc3)nc2c1`, the TGI in assay [1] is > 100 µM; in assay [2] it was > 100 µM; in assay [4], > 100 µM; in assay [5] it was 43.5 µM.

With `O=C(c1ccc([N+](=O)[O-])cc1[N+](=O)[O-])N(/N=C/C=C/c1ccccc1)c1nnc(-c2ccccc2)c(-c2ccccc2)n1`, the TGI in assay [1] is > 100 µM; in assay [2], > 100 µM; in assay [3] it was > 100 µM; in assay [4], 72.6 µM; in assay [5], 42.3 µM.

Turning to `NC(N)=Nc1nc2ccccc2o1`, in assay [6], the GI50 is > 100 µM and the TGI is > 100 µM.

Turning to `COC(=O)c1c(C)cc(OC)c(C/C=C(\C)CCCc2coc(C=C(C)C)c2)c1OC`, the TGI in assay [6] and in assay [7] was > 100 µM each time.

Regarding `Oc1oc(C(=C2N=c3ccccc3=N2)c2ccc(Cl)cc2)c(O)c1-c1ccc(Cl)cc1`, the TGI in assay [2] was 10.2 µM; in assay [3] it was > 100 µM; in assay [4], 19.1 µM; in assay [8], > 100 µM.

Consider `CCOC(=O)Cc1csc(Nc2ccccc2[N+](=O)[O-])n1`, for which the TGI in assay [1], in assay [2] and in assay [4] was > 100 µM each time.

Consider `CC12c3ccccc3C(OC=O)(c3ccccc31)C1(C)c3ccccc3C2(OC=O)c2ccccc21`, for which the TGI in assay [1], in assay [2], in assay [3], in assay [4] and in assay [8] was > 100 µM each time.

`C=C(C)C(C1C=C(CCC(C=O)=C(C)C)C(=O)O1)C1(OC)C=C(C)C(=O)O1` (configuration not stated): in assay [6], the GI50 is 25.8 µM and the TGI is > 100 µM.

For the molecule `COc1ccc2c(=O)oc3c(OC)cc(CCN(C)C)c4c(=O)oc1c2c34`, the TGI in assay [1] is 28.1 µM; in assay [2] it was 28.1 µM; in assay [6], 18 µM; in assay [3], 39.4 µM; in assay [4] it was 31.5 µM; in assay [7] it was 14.8 µM.

Regarding `COc1c2occc2c(N)c2ccc(=O)oc12`, the TGI in assay [6] and in assay [7] was > 100 µM throughout.

With `COc1cc2c3c(n(C)c(=O)c2cc1OC)-c1cc2c(cc1C3=O)OCO2`, the TGI in assay [6] was 57.3 µM; in assay [7], > 100 µM.

Take `O=[N+]([O-])c1cccnc1N=Nc1c(O)[nH]c2ccccc12`: the TGI in assay [7] was > 100 µM.
